Test results as given in US9999650B2, “Peptide and peptidomimetic inhibitors” (Ra Pharmaceuticals, Inc., priority 2012, dated 2018).
Numbered stars: 1 amine (or outer) side, 2 acyl side, 3 side chain; on linkers, the order of the positions; unused ones are H or OH. Bridge positions count the residues as written; N and C are the ends. Square brackets hold non-standard residues; d marks the D form. Ends that are not written are not given here. Peptide text beside a SMILES is read from it. X9 = O=C(C[C@H](C(=O)[*:2])C1CCCCC1)[C@@H]1CCCN1[*:1]; Trp(5-Cl) = N[C@@H](Cc1c[nH]c2ccc(Cl)cc12)C(=O)O; Phe(4-CH2NH2) = NCc1ccc(C[C@H](N)C(=O)O)cc1; Phe(3-Cl) = N[C@@H](Cc1cccc(Cl)c1)C(=O)O; Phe(4-Cl) = N[C@@H](Cc1ccc(Cl)cc1)C(=O)O; mXylylene = c1cc(C[*:1])cc(C[*:2])c1; NMeY = CN[C@@H](Cc1ccc(O)cc1)C(=O)O; NMeI = CC[C@H](C)[C@H](NC)C(=O)O; NMeT = CN[C@H](C(=O)O)[C@@H](C)O; X2 = O=C(Cc1cccc(C[*:2])c1)[*:1]; dPhg = N[C@@H](C(=O)O)c1ccccc1; Chg = N[C@H](C(=O)O)C1CCCCC1; Phg = N[C@H](C(=O)O)c1ccccc1; Tle = CC(C)(C)[C@H](N)C(=O)O; NMeS = CN[C@@H](CO)C(=O)O; Nva = CCC[C@H](N)C(=O)O; Aib = CC(C)(N)C(=O)O; Mpa = O=C(O)CCS

Target: T1, human plasma kallikrein (Homo sapiens, UniProt P03952)
T1 construct: purchased Enzyme Research Laboratories HPKa 1303
T1 sequence (P03952 20-390 limits assumed): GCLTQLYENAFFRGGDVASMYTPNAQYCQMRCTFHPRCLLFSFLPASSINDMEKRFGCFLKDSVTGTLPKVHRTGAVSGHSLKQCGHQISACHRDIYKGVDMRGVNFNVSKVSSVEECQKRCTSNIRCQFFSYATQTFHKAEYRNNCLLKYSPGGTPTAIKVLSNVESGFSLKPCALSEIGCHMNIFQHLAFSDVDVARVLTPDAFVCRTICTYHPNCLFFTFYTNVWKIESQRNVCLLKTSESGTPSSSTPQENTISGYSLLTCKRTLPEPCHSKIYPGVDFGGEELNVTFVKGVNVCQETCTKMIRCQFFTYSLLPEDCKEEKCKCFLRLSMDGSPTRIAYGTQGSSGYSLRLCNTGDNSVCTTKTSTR
T1 sequence (P03952 391-638 limits assumed): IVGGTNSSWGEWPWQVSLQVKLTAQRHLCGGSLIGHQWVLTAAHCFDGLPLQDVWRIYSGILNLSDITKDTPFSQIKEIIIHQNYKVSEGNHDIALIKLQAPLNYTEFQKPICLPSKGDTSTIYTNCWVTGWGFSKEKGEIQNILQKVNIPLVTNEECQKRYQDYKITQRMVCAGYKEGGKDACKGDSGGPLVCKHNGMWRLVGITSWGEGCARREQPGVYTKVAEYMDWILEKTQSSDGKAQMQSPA
Assay: Enzyme inhibition assay (fluorogenic substrate H-Pro-Phe-Arg-AMC)
Type: biochemical
Conditions: Kallikrein inhibitory activity; 1 nM activated human kallikrein, 500 μM H-Pro-Phe-Arg-AMC, 1 hour room temperature; read-out: Avg. IC50
Experimental: Activated human plasma kallikrein (Enzyme Research Laboratories, HPKa 1303) was reacted with H-Pro-Phe-Arg-7-amido-4-methylcoumarin (H-Pro-Pre-Arg-AMC) (a fluorogenic substrate for plasma as well as pancreatic and urinary kallikreins; Bachem I-1295) and candidate inhibitory peptides to determine the IC50 of the inhibitor.
Ten 8-fold serial dilutions of peptides (10 mM DMSO stocks) were performed in DMSO and then added to TCNB (50 mM Tris-HCl pH 7.2, 150 mM NaCl, 10 mM CaCl2, 0.05% Brij-35) and sonicated. 50 μL of the peptide dilutions were added to microtitre plates (96 well, black non-binding surface, Corning, 3650) and incubated for 5 minutes at room temperature with 4 nM activated human kallikrein (final concentration after addition of fluorogenic substrate: 1 nM). The samples were then incubated for 1 hour at room temperature with 2 mM H-Pro-Phe-Arg-AMC (final concentration 500 μM). Relative Fluorescence Units (RFU) were measured at excitation/emission 360 nm/460 nm by a SpectraMax M3.

Row | Compound | IC50
1 | CC(C)(C)[C@H](NC(=O)[C@H](CCCNC(=N)N)NC(=O)[C@@H]1CCCc2cn(nn2)CCCCC(=O)N2CCC[C@H]2C(=O)N[C@@H](C2CCCCC2)C(=O)N1)C(N)=O [Compound R2253] | > 100000 nM
2 | CC(C)(C)[C@H](NC(=O)[C@H](CCCNC(=N)N)NC(=O)[C@@H]1C/C=C/c2cccc(c2)OCCCC(=O)N2CCC[C@H]2C(=O)N[C@@H](C2CCCCC2)C(=O)N1)C(N)=O [Compound R2262] | > 100000 nM
3 | CC(=O)N[C@H]1CSCc2cccc(c2)CSC[C@@H](C(N)=O)NC(=O)[C@H](C)NC(=O)[C@H]([C@@H](C)O)NC(=O)[C@H](Cc2c[nH]c3ccccc23)NC(=O)[C@@H]2CCCN2C(=O)[C@H](CO)NC(=O)[C@H](Cc2c[nH]c3ccccc23)NC(=O)[C@H](Cc2ccc(O)cc2)NC(=O)[C@H](CC(N)=O)NC1=O [Compound R2136, [mXylyl(1,10)]Ac-CNYWSPWTAC-NH2] (Ac-CNYWSPWTAC-NH2; linker 1-10 via mXylylene) | 6.1 nM
4 | Ac-YWSPWTECSA-NH2 [Compound R2118, Ac-YW SPWTECSA-NH2] | > 100000 nM
5 | CC(C)(C)[C@H](NC(=O)[C@H](Cc1cccc(Cl)c1)NC(=O)[C@@H]1CSCc2cccc(c2)CSCCC(=O)N2CCC[C@H]2C(=O)N[C@@H](c2ccccc2)C(=O)N1)C(N)=O [Compound R2207, [mXylyl(1,4)](des-NH2)C-P-Phg-C-3-Cl-Phe-Tbg-NH2] ([Mpa]P[Phg]C[Phe(3-Cl)][Tle]-NH2; linker 1-4 via mXylylene) | > 75000 nM
6 | CC(C)(C)[C@H](NC(=O)[C@H](CCCNC(=N)N)NC(=O)[C@@H]1CSCc2cccc(c2)CC(=O)NCC(=O)N2CCC[C@H]2C(=O)N[C@@H](C2CCCCC2)C(=O)N1)C(N)=O [Compound R2265] (GP[Chg]CR[Tle]-NH2; linker N-4 via X2) | 39.2 nM
7 | CC(=O)N[C@@H](CS)C(=O)N[C@@H](CC(N)=O)C(=O)N(C)[C@@H](Cc1ccc(O)cc1)C(=O)N[C@@H](Cc1c[nH]c2ccccc12)C(=O)N[C@@H](CO)C(=O)N1CCC[C@H]1C(=O)N[C@@H](Cc1c[nH]c2ccccc12)C(=O)N[C@H](C(=O)N[C@@H](C)C(=O)N[C@@H](CS)C(N)=O)[C@@H](C)O [Compound R2239, Ac-CN-nMeY-WSPWTAC-NH2] (Ac-CN[NMeY]WSPWTAC-NH2) | > 12500 nM
8 | CC(C)[C@H](NC(=O)[C@H](CCCNC(=N)N)NC(=O)[C@@H]1CSCc2cccc(c2)CSCCC(=O)N2CCC[C@H]2C(=O)N[C@@H](C2CCCCC2)C(=O)N1)C(=O)O [Compound R2183, [mXylyl(1,4)](des-NH2)C-P-Chg-CR-V-OH] ([Mpa]P[Chg]CRV-OH; linker 1-4 via mXylylene) | > 3500 nM
9 | CC(C)(C)[C@H](NC(=O)[C@H](Cc1ccc(Cl)cc1)NC(=O)[C@@H]1CSCc2cccc(c2)CSCCC(=O)N2CCC[C@H]2C(=O)N[C@H](c2ccccc2)C(=O)N1)C(N)=O [Compound R2206, [mXylyl(1,4)](des-NH2)C-P-(D)Phg-C-4-Cl-Phe-Tbg-NH2] ([Mpa]P[dPhg]C[Phe(4-Cl)][Tle]-NH2; linker 1-4 via mXylylene) | > 75000 nM
10 | CC(=O)N[C@H]1CSSC[C@@H](C(N)=O)NC(=O)[C@H](C)NC(=O)[C@H]([C@@H](C)O)N(C)C(=O)[C@H](Cc2c[nH]c3ccccc23)NC(=O)[C@@H]2CCCN2C(=O)[C@H](CO)N(C)C(=O)[C@H](Cc2c[nH]c3ccccc23)NC(=O)[C@H](Cc2ccc(O)cc2)N(C)C(=O)[C@H](CC(N)=O)NC1=O [Compound R2224, [cyclo(1,10)]Ac-CN-nMeY-W-nMeS-PW-nMeT-AC-NH2] (Ac-CN[NMeY]W[NMeS]PW[NMeT]AC-NH2; disulfide 1-10) | > 100000 nM
11 | CC(C)(C)[C@H](NC(=O)[C@H](CCCNC(=N)N)NC(=O)[C@@H]1CCOc2cccc(c2)OCCCC(=O)N2CCC[C@H]2C(=O)N[C@@H](C2CCCCC2)C(=O)N1)C(N)=O [Compound R2256] | > 100000 nM
12 | CC[C@H](C)[C@H]1C(=O)N[C@H](C(=O)N[C@@H](CCCNC(=N)N)C(=O)N[C@H](C(N)=O)C(C)C)CSCc2cccc(c2)CSC[C@H](NC(=O)[C@@H](N)CCSC)C(=O)N[C@@H](CCC(=O)O)C(=O)N[C@@H](CO)C(=O)N1C [Compound R2026, [mXylyl(2,6)]MCES-nMeI-CRV-NH2] (H-MCES[NMeI]CRV-NH2; linker 2-6 via mXylylene) | 26 nM
13 | CC(=O)N[C@H](C(=O)N[C@H]1CSCc2cccc(c2)CSC[C@@H](C(N)=O)NC(=O)[C@H](C)NC(=O)[C@H](C(C)C)NC(=O)[C@H](CCCNC(=N)N)NC1=O)C1CCCCC1 [Compound R2159, [mXylyl(2,6)]Ac-Chg-CR-V-AC-NH2] (Ac-[Chg]CRVAC-NH2; linker 2-6 via mXylylene) | > 20100 nM
14 | CC(C)(C)[C@H](NC(=O)[C@H](CCCNC(=N)N)NC(=O)[C@@H]1CSCc2cccc(c2)/C=C/CC(=O)N2CCC[C@H]2C(=O)N[C@@H](C2CCCCC2)C(=O)N1)C(N)=O [Compound R2259] | 1460 nM
15 | CC(=O)N[C@H](C(=O)N[C@H]1CSCc2cccc(c2)CSC[C@@H](C(N)=O)NC(=O)[C@@H]2CCCN2C(=O)[C@H](C(C)C)NC(=O)[C@H](CCCNC(=N)N)NC1=O)C1CCCCC1 [Compound R2160, [mXylyl(2,6)]Ac-Chg-CR-V-PC-NH2] (Ac-[Chg]CRVPC-NH2; linker 2-6 via mXylylene) | > 100000 nM
16 | CCC[C@H](N)C(=O)N[C@H]1CSCc2cccc(c2)CSC[C@@H](C(=O)N[C@@H](Cc2ccc(CN)cc2)C(=O)N[C@H](C(N)=O)C(C)C)NC(=O)[C@H]([C@@H](C)CC)NC(=O)[C@H](CO)NC(=O)[C@H](CCC(=O)O)NC1=O [Compound R2021, [mXylyl(2,6)]Nvl-CESIC-Phe(4-CH2NH2)-V-NH2] (H-[Nva]CESIC[Phe(4-CH2NH2)]V-NH2; linker 2-6 via mXylylene) | 2000 nM
17 | CC(C)(C)[C@H](NC(=O)[C@H](CCCNC(=N)N)NC(=O)[C@@H]1CCCc2cccc(c2)OCCCC(=O)N2CCC[C@H]2C(=O)N[C@@H](C2CCCCC2)C(=O)N1)C(N)=O [Compound R2263] | > 100000 nM
18 | CC[C@H](C)[C@@H]1NC(=O)[C@H](CO)NC(=O)[C@H](CCC(=O)O)NC(=O)[C@@H](NC(=O)[C@@H](N)CCSC)CSCc2cccc(c2)CSC[C@@H](C(=O)N[C@@H](CCCNC(=N)N)C(=O)N[C@@H](CCC(=O)O)C(N)=O)NC1=O [Compound R2087, [mXylyl(2,6)]MCESICRE-NH2] (H-MCESICRE-NH2; linker 2-6 via mXylylene) | > 16600 nM
19 | CC[C@@H](C)[C@@H]1NC(=O)[C@@H]2CCCN2C(=O)CCCCCCCC/C=C/C[C@@H](C(=O)N[C@@H](CCCNC(=N)N)C(=O)N[C@H](C(N)=O)C(C)C)NC1=O [Compound R2243] | > 50000 nM
20 | CC(=O)N[C@@H](CS)C(=O)N[C@@H](CC(N)=O)C(=O)N[C@@H](Cc1ccc(O)cc1)C(=O)N[C@@H](Cc1c[nH]c2ccccc12)C(=O)N[C@@H](C)C(=O)N1CCC[C@H]1C(=O)N[C@@H](Cc1c[nH]c2ccccc12)C(=O)N[C@H](C(=O)N[C@@H](CCC(=O)O)C(=O)N[C@@H](CS)C(N)=O)[C@@H](C)O [Compound R2131, Ac-CNYWAPWTEC-NH2] (Ac-CNYWAPWTEC-NH2) | 127 nM
21 | CC(C)(C)[C@H](NC(=O)[C@H](CCCNC(=N)N)NC(=O)[C@@H]1CSCc2cccc(c2)CSCCC(=O)N2CCC[C@H]2C(=O)C[C@@H](C2CCCCC2)C(=O)N1)C(N)=O [Compound R2247] ([Mpa][X9]CR[Tle]-NH2; linker 1-3 via mXylylene) | 474 nM
22 | CC(C)(C)[C@H](NC(=O)[C@H](Cc1c[nH]c2ccc(Cl)cc12)NC(=O)[C@@H]1CSCc2cccc(c2)CSCCC(=O)N2CCC[C@H]2C(=O)N[C@H](c2ccccc2)C(=O)N1)C(N)=O [Compound R2210, [mXylyl(1,4)](des-NH2)C-P-(D-Phg)-C-5-C1-Trp-Tbg-NH2] ([Mpa]P[dPhg]C[Trp(5-Cl)][Tle]-NH2; linker 1-4 via mXylylene) | > 75000 nM
23 | Ac-SPWTECSA-NH2 [Compound R2120, Ac-SPWTECSA-NH2] | > 100000 nM
24 | MCNYWSP-NH2 [Compound R2115, MCNYWSP-NH2] | > 17300 nM
25 | C[C@@H]1NC(=O)C(C)(C)NC(=O)CCSCc2cccc(c2)CSC[C@@H](C(=O)N[C@@H](CCCNC(=N)N)C(=O)N[C@H](C(N)=O)C(C)(C)C)NC(=O)[C@H](C2CCCCC2)NC1=O [Compound R2091, [mXylyl(1,5)](des-NH2)C-Aib-A-Chg-CR-Tbg-NH2] ([Mpa][Aib]A[Chg]CR[Tle]-NH2; linker 1-5 via mXylylene) | 3.2 nM
26 | CSCC[C@H](N)C(=O)N[C@@H](CS)C(=O)N[C@@H](CC(N)=O)C(=O)N[C@@H](Cc1ccc(O)cc1)C(=O)N[C@@H](Cc1c[nH]c2ccccc12)C(=O)N[C@@H](CO)C(=O)N1CCC[C@H]1C(=O)N[C@@H](Cc1c[nH]c2ccccc12)C(=O)N[C@H](C(=O)N[C@@H](CCC(=O)O)C(=O)N[C@@H](CS)C(=O)N[C@@H](CO)C(N)=O)[C@@H](C)O [Compound R2110, MCNYWSPWTECS-NH2] (H-MCNYWSPWTECS-NH2; N-terminus assumed) | 3.5 nM
27 | CC(C)(C)[C@H](NC(=O)[C@H](CCCNC(=N)N)NC(=O)[C@@H]1CCn2cc(nn2)CCCCC(=O)N2CCC[C@H]2C(=O)N[C@@H](C2CCCCC2)C(=O)N1)C(N)=O [Compound R2249] | > 100000 nM
28 | CC(C)C[C@H](NC(=O)[C@@H](NC(=O)[C@H](CCCNC(=N)N)NC(=O)[C@@H]1CSCc2cccc(c2)CSCCC(=O)N2CCC[C@H]2C(=O)N[C@@H](c2ccccc2)C(=O)N1)C(C)(C)C)C(=O)O [Compound R2202, [mXylyl(1,4)](des-NH2)C-P-Phg-CR-Tbg-L-OH] ([Mpa]P[Phg]CR[Tle]L-OH; linker 1-4 via mXylylene) | 58.8 nM
